Test results as given in patent publication US9718790B2, “Triazine derivative and pharmaceutical composition having an analgesic activity comprising the same” (SHIONOGI & CO., LTD., priority 2010, dated 2017).
One block for each compound: values may come before it.

Legend:
[1] = biological target: CYP2C19 (Homo sapiens (Human), UniProt P33261); experiment: CYP inhibition test, pooled human hepatic microsome, mephenytoin 4'-hydroxylation; assay type: in vitro ADME; settings: substrate S-mephenitoin
Protocol: (§1) Using commercially available pooled human hepatic microsome, and employlng, as markers, 7-ethoxyresorufin O-deethylation (CYP1A2), tolbutamide methyl-hydroxylation (CYP2C9), mephenyloin 4′-hydroxylation (CYP2C19), dextromethorphan O-demethylation (CYP2D6), and terfenedine hydroxylation as typical substrate metabolism reactions of human main five CYP enzyme forms (CYP1A2, 2C9, 2C19, 2D6, 3A4), an inhibitory degree of each metabolite production amount by a test compound was assessed.
(§2) The reaction conditions were as follows: substrate, 0.5 μmol/L ethoxyresorufin (CYP1A2), 100 μmol/L tolbutamide (CYP2C9), 50 μmol/L S-mephenitoin (CYP2C19), 5 μmol/L dextromethorphan (CYP2D6), 1 μmol/L terfenedine (CYP3A4) reaction time, 15 minutes; reaction temperature, 37° C; enzyme, pooled human hepatic microsome 0.2 mg protein/mL; test drug concentration, 1.0, 5.0, 10, 20 μmol/L (four points).
(§3) Each five kinds of substrates, human hepatic microsome, or a test drug in 50 mmol/L Hepes buffer as a reaction solution was added to a 96-well plate at the composition as described above, NADPH, as a cofactor was added to initiate metabolism reactions as markers and, after the incubation at 37° C. for 15 minutes, a methanol/acetonitrile=1/1 (v/v) solution was added to stop the reaction. After the centrifugation at 3000 rpm for 15 minutes, resorufin (CYP1A2 metabolite) in the supernatant was quantified by a fluorescent multilabel counter and tributamide hydroxide (CYP2CP metabolite), mephenyloin 4′ hydroxide (CYP2C19 metabolite), […] (CYP2D6 metabolite), and terfenadine alcohol (CYP3A4 metabolite) were quantified by LC/MS/MS.

[2] = biological target: CYP2C9 (Homo sapiens (Human), UniProt P11712); experiment: CYP inhibition test, pooled human hepatic microsome, tolbutamide methyl-hydroxylation; assay type: in vitro ADME; settings: substrate tolbutamide
Protocol: as §1, §2, §3

[3] = biological target: CYP2D6 (Homo sapiens (Human), UniProt P10635); experiment: CYP inhibition test, pooled human hepatic microsome, dextromethorphan O-demethylation; assay type: in vitro ADME; settings: substrate dextromethorphan
Protocol: as §1, §2, §3

[4] = Bioavailability (BA) test; assay type: in vivo; settings: plasma; mice or SD rats, oral vs intravenous AUC
Protocol: (1) Animals: Mice or SD rats were used
(2) Breeding conditions: Mice or SD rats were allowed to freely take solid food and sterilized tap water.
(3) Dose and grouping: orally or intravenously administered at a predetermined dose; grouping was as follows (Dose depends one the compound) • Oral administration: 0.3 to 30 mg/kg (n=2 to 3) • Intravenous administration: 0.5 to 10 mg/kg (n=2 to 3)
(4) Preparation of dosing solution: for oral administration, in a solution or a suspension state: for intravenous administration, in a solubilized state
(5) Administration method: in oral administration, forcedly administer into ventriculus with oral probe; in intravenous administration, administer from caudal vein with a needle-equipped syringe
(6) Evaluation items: blood was collected over time, and the plasma concentration of drug was measured by LC/MS/MS
(7) Statistical analysis: regarding the transition of the plasma concentration or the present compound, the area under the plasma concentration-time curve (AUC) was calculated by non-linear least squares program WinNonlin (Registered trade name), and the bioavailability (BA) was calculated the AUCs of the oral administration group and intravenous administration group

[5] = biological target: CYP1A2 (Homo sapiens (Human), UniProt P05177); experiment: CYP inhibition test, pooled human hepatic microsome, 7-ethoxyresorufin O-deethylation; assay type: in vitro ADME; settings: substrate ethoxyresorufin
Protocol: as §1, §2, §3

[6] = biological target: CYP3A4 (Homo sapiens (Human), UniProt P08684); experiment: CYP inhibition test, pooled human hepatic microsome, terfenedine hydroxylation; assay type: in vitro ADME; settings: substrate terfenedine
Protocol: as §1, §2, §3

[7] = system: serum; experiment: Protein binding test (equilibrium dialysis, serum); assay type: in vitro ADME; settings: 37° C., 24 hours, 2 μg/mL
Protocol: The unbound fraction the present compound in serum was measured using serum of various species.
The reactive conditions are as follows: Evaluation method, Equilibrium dialysis; Reaction time, 24 hours; Reaction temperature, 37° C.; Concentration of the present compound, 2 μg/mL.
The test solution was added to each serum and the mixture was agitated to prepare the serum samples at the concentration mentioned above. Each serum sample was added into one side or the cell and phosphate buffered saline (PBS) was added into the other side to perform equilibrium dialysis at 37° C. for 24 hours. Then, the concentration of the compounds in the samples that were obtained from both sides was measured by LC/MS/MS.
(Result) The ratio of PBS concentration to serum concentration is expressed as unbound fraction.

[8] = biological target: human P2X3 receptor (Homo sapiens (Human), UniProt P56373); experiment: Evaluation of human P2X3 receptor inhibitory activity (Fluo-3 calcium fluorescence, FDSS 3000, ATP stimulation); assay type: cell-based; settings: C6BU-1 cells stably expressing human P2X3 receptor;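 further: stimulus was 50 nM ATP with fluorescence followed for 3 min, and the response per well was peak post-ATP fluorescence divided by the reading at measurement start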
[9] = system: rat model of cystitis; experiment: Evaluation of the urinary function in a rat model of cystitis (acetic acid infusion, cystometry); assay type: in vivo; settings: oral administration of 30 mg/kg
From the text: A rat was fixed in the supine position after being given anesthesia through the inhalation of 2% isoflurane (Anesthetic background: Nitrous oxide: Oxygen=7:3). A midline incision was made in its abdomen to expose the bladder. A cannula (made by) processing a polyethylene tube (PE-50: Becton Dickinson)) was inserted through a small incision on top of the bladder and fixed to create a bladder fistula. The other end of the cannula was led through the hypodermal tissue to the back, and the muscular coat and skin were sutured. The cannula, which was led to the back, was protected with a stainless spring in the middle and connected to the cannula swivel. […]
Three days after the acetic acid infusion, the other end of the cannula inserted into the bladder was connected to a T shape stopcock and then the intravesical pressure was recorded continuously using a pressure amplifier while infusing warmed normal saline solution at a rate of 3.0 mL/hr from one side and through a pressure transducer on the other side. The baseline of the intravesical pressure was measured (for approximately 40 minutes) after a measurement for stable duration (for approximately 20 minutes). After that, a vehicle, positive control compound or test compound wore administered, and the value after administration was measured for approximately 120 minutes. […]

[10] = system: partial sciatic nerve ligation model in rats; experiment: Analgesic effect in a Seltzer model, Evaluation (2): mechanical hyperalgesia, analgesy meter paw pressure test; assay type: in vivo; settings: rat, oral administration, 10 mg/kg, at 3 hours
From the text: Rats were anaesthetized using isoflurane/O2 inhalation anaesthesia. After induction of anesthesia, the left thigh was shaved. An incision was made in the skin just below the hip bone. The muscle was bluntly dissected to expose the sciatic nerve. One third (⅓) to one half (½) of the sciatic nerve thickness was tightly ligated and the wound was closed. The right thigh is used as a sham-operated control. The right thigh undergoes an identical procedure with the left hind limb, however, the sciatic nerve is not manipulated or ligated.
Mechanical hyperalgesia was eavaluated using an analgesy meter. Two weeks after nerve ligation, the paw pressure test was performed using an analgesy meter (stimulus pressure increased 16 g per second) to obtain paw withdrawal thresholds (PWT). Measurements were made on both sides of the hind paw and to obtain pre-dose PWT. The rats showing the threshold change from 60 to 90 g (in nerve ligated side) and 100 to 175 g (in sham operated side) were used in the experiments. On the day before the experiment, the rats have their hind paws set on the apparatus to familiarize them with the test procedure. […] Post-dose PWT of the right and left hind paws were measured at approximately 1 to 5 hours after drug administration. Percent reversal of mechanical hyperalgesia for each rat was calculated using the following formula. […]

Chain of CYP3A4 (P08684 whole entry): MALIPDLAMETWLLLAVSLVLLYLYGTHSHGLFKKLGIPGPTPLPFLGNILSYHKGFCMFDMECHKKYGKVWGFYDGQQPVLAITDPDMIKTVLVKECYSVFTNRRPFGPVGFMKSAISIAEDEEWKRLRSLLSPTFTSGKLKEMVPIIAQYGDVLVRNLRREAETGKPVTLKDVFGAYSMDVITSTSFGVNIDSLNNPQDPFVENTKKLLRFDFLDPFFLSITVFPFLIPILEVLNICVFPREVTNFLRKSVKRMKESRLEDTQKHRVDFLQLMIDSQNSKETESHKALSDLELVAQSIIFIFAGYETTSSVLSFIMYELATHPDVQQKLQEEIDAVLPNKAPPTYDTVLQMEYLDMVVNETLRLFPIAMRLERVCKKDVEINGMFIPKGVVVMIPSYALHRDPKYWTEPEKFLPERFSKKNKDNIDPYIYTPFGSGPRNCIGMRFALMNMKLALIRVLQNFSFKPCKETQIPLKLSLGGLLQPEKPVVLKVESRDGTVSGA
Chain of CYP2C19 (P33261 whole entry): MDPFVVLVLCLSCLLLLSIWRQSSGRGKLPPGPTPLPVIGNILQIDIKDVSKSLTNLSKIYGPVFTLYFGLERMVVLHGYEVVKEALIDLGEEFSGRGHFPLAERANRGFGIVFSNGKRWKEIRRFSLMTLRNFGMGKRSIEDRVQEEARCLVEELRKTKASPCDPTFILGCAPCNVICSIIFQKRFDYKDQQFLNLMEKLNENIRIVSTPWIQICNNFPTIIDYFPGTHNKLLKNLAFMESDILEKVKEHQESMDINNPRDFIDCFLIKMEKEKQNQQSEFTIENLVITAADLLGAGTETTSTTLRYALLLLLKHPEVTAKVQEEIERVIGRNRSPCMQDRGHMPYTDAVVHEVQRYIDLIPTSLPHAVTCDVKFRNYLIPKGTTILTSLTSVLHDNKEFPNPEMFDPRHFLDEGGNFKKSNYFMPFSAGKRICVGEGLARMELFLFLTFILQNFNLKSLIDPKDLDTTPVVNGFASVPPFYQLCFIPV
Chain of human P2X3 receptor (P56373 whole entry, the tested form may be a part): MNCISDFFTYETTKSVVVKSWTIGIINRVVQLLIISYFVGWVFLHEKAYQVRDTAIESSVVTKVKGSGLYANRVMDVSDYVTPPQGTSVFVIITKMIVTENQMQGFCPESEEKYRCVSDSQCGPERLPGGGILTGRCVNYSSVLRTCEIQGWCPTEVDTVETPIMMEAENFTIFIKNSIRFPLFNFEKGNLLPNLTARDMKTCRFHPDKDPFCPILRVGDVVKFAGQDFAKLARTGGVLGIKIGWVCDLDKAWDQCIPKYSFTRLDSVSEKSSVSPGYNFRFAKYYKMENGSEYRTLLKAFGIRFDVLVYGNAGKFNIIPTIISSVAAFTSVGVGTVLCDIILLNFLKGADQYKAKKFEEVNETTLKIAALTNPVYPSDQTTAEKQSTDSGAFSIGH
Chain of CYP1A2 (P05177 whole entry): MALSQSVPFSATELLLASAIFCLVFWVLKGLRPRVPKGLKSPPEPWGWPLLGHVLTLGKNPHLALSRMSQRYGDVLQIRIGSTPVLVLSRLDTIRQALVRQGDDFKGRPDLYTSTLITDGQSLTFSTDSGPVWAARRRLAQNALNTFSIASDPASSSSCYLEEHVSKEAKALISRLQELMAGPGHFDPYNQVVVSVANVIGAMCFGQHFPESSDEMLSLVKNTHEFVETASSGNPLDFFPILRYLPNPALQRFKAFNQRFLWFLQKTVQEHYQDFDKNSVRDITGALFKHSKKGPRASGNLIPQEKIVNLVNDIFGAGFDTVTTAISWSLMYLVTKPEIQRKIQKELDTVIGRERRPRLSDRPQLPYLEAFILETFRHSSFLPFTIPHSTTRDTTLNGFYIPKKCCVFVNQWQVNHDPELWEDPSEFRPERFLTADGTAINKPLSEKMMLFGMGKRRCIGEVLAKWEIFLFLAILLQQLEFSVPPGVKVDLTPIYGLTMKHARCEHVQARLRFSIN
Chain of CYP2D6 (P10635 whole entry): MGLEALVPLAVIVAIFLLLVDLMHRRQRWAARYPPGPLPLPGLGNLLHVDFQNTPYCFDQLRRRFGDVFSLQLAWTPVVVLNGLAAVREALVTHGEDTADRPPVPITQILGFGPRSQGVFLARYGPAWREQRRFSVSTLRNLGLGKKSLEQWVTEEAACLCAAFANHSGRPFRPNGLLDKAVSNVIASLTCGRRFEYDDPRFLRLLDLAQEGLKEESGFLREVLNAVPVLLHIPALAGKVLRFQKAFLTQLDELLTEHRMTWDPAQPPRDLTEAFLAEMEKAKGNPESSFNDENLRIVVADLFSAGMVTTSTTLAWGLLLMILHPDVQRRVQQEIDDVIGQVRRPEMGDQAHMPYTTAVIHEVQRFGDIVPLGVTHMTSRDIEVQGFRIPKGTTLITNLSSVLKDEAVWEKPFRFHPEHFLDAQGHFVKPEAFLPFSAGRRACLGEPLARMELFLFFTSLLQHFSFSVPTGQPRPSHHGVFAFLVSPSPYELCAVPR
Chain of CYP2C9 (P11712 whole entry): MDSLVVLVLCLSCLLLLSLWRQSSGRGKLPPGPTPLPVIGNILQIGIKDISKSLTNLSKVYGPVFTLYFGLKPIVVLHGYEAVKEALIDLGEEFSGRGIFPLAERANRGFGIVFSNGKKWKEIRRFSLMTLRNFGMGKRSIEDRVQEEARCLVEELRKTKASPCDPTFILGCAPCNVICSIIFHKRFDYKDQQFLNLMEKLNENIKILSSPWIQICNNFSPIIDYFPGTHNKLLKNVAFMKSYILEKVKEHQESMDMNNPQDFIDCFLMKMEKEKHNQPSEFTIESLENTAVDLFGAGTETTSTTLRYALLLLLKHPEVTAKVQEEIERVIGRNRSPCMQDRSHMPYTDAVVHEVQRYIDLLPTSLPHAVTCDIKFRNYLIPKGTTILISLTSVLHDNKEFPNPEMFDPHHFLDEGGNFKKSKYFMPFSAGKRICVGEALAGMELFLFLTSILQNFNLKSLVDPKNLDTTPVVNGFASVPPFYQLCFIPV

IC50 [1]: > 20 µM | IC50 [2]: > 20 µM | IC50 [3]: > 20 µM | bioavailability [4]: > 99.9% | IC50 [5]: > 20 µM | IC50 [6]: > 20 µM
SMILES: COC(=O)[C@@H](C)Cn1c(=O)[nH]/c(=N\c2cccc(C3C=CCCC3)c2)n(Cc2ccc(C)cc2)c1=O (some centres unmarked) [Compound I-1079]

SMILES: CNC(=O)c1cc(Oc2ccc(/N=c3\[nH]c(=O)n(C)c(=O)n3Cc3ccc(Cl)cc3)cc2)ccn1 [Compound I-2011]
unbound fraction (ratio of PBS concentration to serum concentration) [7]: 0.5% | IC50 [8]: 0.01 µM

SMILES: CC(C)Oc1ccc(Nc2nc(=O)n(CC(C)(C)C(=O)O)c(=O)n2Cc2ccc(Cl)cc2)cc1F [Compound I-0364]
improvements in the urinary function in the voided volume per urination [9]: 88% | improvements in the urinary function in the voiding interval [9]: 74.8% | analgesic effect, percent reversal of mechanical hyperalgesia [10]: 56.7 % reversal
